According to US20240118263A1, “TARGET FOR SCREENING ANTI-TUMOR DRUG, USE THEREOF AND SCREENING METHOD THEREFOR” (SHENYANG FUYANG PHARMACEUTICAL TECHNOLOGY CO., LTD., priority 2019, published 2024):
pIC50, pKd: −log10 of the molar value. Read-outs that look alike come from different tables or passages of the source.

Experiments:
[1] = test system: human non-small cell lung cancer cells A549; assay: MTT in-vitro anti-tumor activity test, A549; details: for IC50: read-out: A549 IC50 cytotoxicity; for pIC50: read-out: IC50 cytotoxic effect on A549
Experimental: (§1) Experimental Materials Human non-small cell lung cancer cells A549, mouse breast cancer cells 4T-1 and mouse melanoma B16-BL6 were purchased from American Type Current Collection (ATCC, Rockville, MD, USA). An RPMI-1640 culture solution containing 10% of fetal calf serum and 2% of glutamine was inoculated with the A549, 4T-1 and B16-BL6 cells, and the cells were incubated at 37° C. in a 5% CO2 incubator.
(§2) The compounds were dissolved in DMSO under a sterile condition, and the obtained solutions were diluted to required concentrations by using an RPMI 1640 culture solution, wherein the final concentration of the DMSO was less than 0.5%.
(§3) A549, 4T-1 and B16-BL6 were used as adherent cells, adherent tumor cells in a logarithmic phase were selected, digested with pancreatin, and then prepared into a cell suspension of 5×10^4/ml with a culture medium containing 10% of calf serum, a 96-well culture plate was inoculated with the cell suspension, wherein each well contained 100 μl of the cell suspension, and incubation was carried out for 24 h at 37° C. and 5% CO2. Replacing was carried out with a new culture solution containing the samples to be detected of different concentrations in the experimental groups, replacing was carried out with a culture solution containing a same volume of solvent in the control group, three parallel wells were set in each group, and incubation was carried out for 48 hours at 37° C. and 5% CO2. The supernate was discarded, careful washing was carried out with PBS twice, 100 μl of a freshly prepared culture medium containing 0.5 mg/ml of MTT was added into each well, and incubation was continued to be carried out at 37° C. for 4 h. The supernatant was carefully discarded, 150 μl of DMSO was added, uniform mixing was carried out for 10 min by using a micro oscillator, and the optical density value was measured at 492 nm by using a microplate reader.
(§4) Tumor cell growth inhibition ratio (%)=[A492 (negative control)−A492 (dosing group)]/A492 (negative control)×100%
(§5) The median inhibitory concentration (IC50) of the sample is calculated.

[2] = biological target: SelH (Homo sapiens, UniProt Q8IZQ5, U44C); assay: Surface plasmon resonance (SPR) detection of affinity between compounds and SelH; format: binding; details: for binding activity to the SelH (in words): ranking within the table's compounds
Text: A Cys-deficient Escherichia coli expression system was adopted, which is an effective method to prepare selenoprotein found in recent years. Itsbasic principle is as follows: the characteristic that Cys transfer RNA (tRNACys) can bind to Sec was utilized, and a culture medium which is lack of cysteine (Cys) and rich in Selenium cysteine (Sec) was used for culturing a strain, so that Sec was successfully incorporated into newly expressed protein. According to existing literature reports, a human SelH gene sequence was obtained. Selenocysteine of the SelH is in the middle of the sequence and was terminated here during prokaryotic expression, so that the selenocysteine was mutated from a triple codon TGA of the selenocysteine into TGC, which was synthesized by the Sangon Bioengineering (Shanghai) Co., Ltd. In addition, the adopted SPP system was a single protein production system, and a principle of the SPP system was to induce MazF enzyme (mRNA interfering enzyme for cutting RNA on an ACA nucleotide sequence) to cause growth arrest of thalli. The enzyme can specifically recognize and cut the ACA sequence and prevent synthesis of other background proteins in bacteria. Therefore, when mRNA of the desired target protein was encoded, if the mRNA can be designed into a form lacking an ACA base triplet according to an amino acid encoding rule and was induced at 15° C. by using a pCold vector in cells expressing MazF, the mRNA was not enzymatically hydrolyzed, only a protein derived from the mRNA was generated, and there was little synthesis of other cell proteins.
A pColdI-selH plasmid was transformed into BL21 (DE3) Cys-deficient Escherichia coli, so as to obtain a defective expression bacterium pColdI-selH. Sec was added during culture, making it become selenium-containing protein. The target protein was purified by using Ni^2+ column chelating chromatography, and impure protein was eluted by using an imidazole eluent of different concentrations to finally obtain the target protein. Soluble SelH protein was finally obtained, and SDS-PAGE (sodium dodecyl sulfate polyacrylamide gel electrophoresis) analysis was carried out.
A surface plasmon resonance (SPR) method was adopted to detect the interaction condition of a small molecule and a protein, so that the screening of drugs targeting SelH was carried out.
Purified SelH was diluted into a 50 μg/mL protein solution by using 10 mM sodium acetate with a pH value of 5.5, the purified SelH was fixed onto a CM5 chip by an amino coupling method by using Biacore 8K (GE Healthcard, Sweden), and an RU value was recorded.
An isopentenyl or isovaleryl substituted coumarin compound, or a triterpenoid compound with an isopentenyl-like structure (the compound specifically includes aurapten, protopanaxadiol, iso-imperatorin, decursin, osthol, notoginsenoside R1 and shionon) was dissolved in 100% DMSO to be prepared into solutions containing 5% DMSO of different concentrations (0, 31.25, 62.5, 125, 250 and 500 μM) by using a 1.05×PBS-P^+ buffer solution (GE Healthcare, obtained by diluting 10×PBS-P^+).
A single-cycle kinetics method was adopted, the 1.05×PBS-P^+ buffer solution containing 5% DMSO was used as a Running Buffer, different compounds of different concentrations flowed through the SelH fixed onto the chip, wherein the binding time was 120 s, and the change condition of the RU value was recorded. An equilibrium dissociation constant (KD) was calculated by using software in Biacore 8K so as to evaluate the binding affinity between the protein and the compounds. The SPR detection result of the affinity between compounds and SelH in Embodiment 2 of the present disclosure is as shown in FIG. 1A-G, and the result statistics is as shown in Table 1.
(1) Screening of small molecule drugs by taking SelH as a target A surface plasmon resonance (SPR) method was adopted to detect the interaction condition of a small molecule and a protein, so that the screening of drugs targeting SelH was carried out. […]

[3] = test system: mouse breast cancer 4T1 cells
Experimental: as §1, §2, §3, §4, §5

[4] = test system: mouse melanoma B16-BL6 cells; assay: cells; format: cell-based
Text: MTT reduction method is used.

[5] = test system: human non-small cell lung cancer cells A549
Experimental: as §1, §2, §3, §4, §5

[6] = test system: mouse breast cancer 4T1 cells; assay: MTT in-vitro anti-tumor activity test, 4T1; details: read-out: IC50 cytotoxic effect on 4T1
Experimental: as §1, §2, §3, §4, §5

[7] = SPR Biacore 8K, single-cycle kinetics, Table 3, read-out: KD binding of macrolides and cyclic peptides to SelH
[8] = read-out: IC50 cytotoxic effect on B16-BL6, MTT, 48 hours, Table 1
[9] = SPR Biacore 8K, single-cycle kinetics, Table 1, read-out: Dissociation constant KD of compounds and SelH
[10] = SPR Biacore 8K, single-cycle kinetics, Table 2, read-out: Dissociation constant KD of compounds and SelH
[11] = Mus musculus, B16-BL6, read-out: IC50 cytotoxic effect on B16-BL6, MTT, 48 hours, Table 1
[12] = Mus musculus, B16-BL6, 48 h, read-out: IC50 cytotoxic effect on B16-BL6

CC[C@H]1OC(=O)[C@H](C)[C@@H](O[C@H]2C[C@@](C)(OC)[C@@H](O)[C@H](C)O2)[C@H](C)[C@@H](O[C@@H]2O[C@H](C)C[C@H](N(C)C)[C@H]2O)[C@](C)(O)C[C@@H](C)C(=O)[C@H](C)[C@@H](O)[C@]1(C)O [Erythromycin, erythromycin]
IC50 ([1]; Homo sapiens, A549, 48 h): 230 µg/mL | pKd [2, 7]: 4.98

CO[C@@H]1[C@@H](O[C@@H]2O[C@H](C)[C@@H](O[C@H]3C[C@@](C)(O)[C@@H](O)[C@H](C)O3)[C@H](N(C)C)[C@H]2O)[C@@H](CC=O)C[C@@H](C)[C@@H](O[C@H]2CC[C@H](N(C)C)[C@@H](C)O2)/C=C/C=C/C[C@@H](C)OC(=O)C[C@H]1O [Spiramycin, spiramycin]
A549 IC50 cytotoxicity ([1]; MTT, 48 hours, Table 3): 18.33 µg/mL | pKd [2, 7]: 5.36

C=C(NC(=O)C(=C)NC(=O)c1csc(C2=N[C@@H]3c4csc(n4)[C@H]4NC(=O)c5csc(n5)[C@H]([C@](C)(O)[C@@H](C)O)NC(=O)[C@H]5CSC(=N5)/C(=C/C)NC(=O)[C@H]([C@@H](C)O)NC(=O)c5csc(n5)[C@]3(CC2)NC(=O)[C@H](C)NC(=O)C(=C)NC(=O)[C@H](C)NC(=O)[C@H]([C@@H](C)CC)N[C@@H]2C=Cc3c([C@H](C)O)cc(nc3[C@H]2O)C(=O)O[C@@H]4C)n1)C(N)=O [Thiostrepton, thiostrepton]
IC50 ([1]; Homo sapiens, A549, 48 h): 9.66 µg/mL | pKd [2, 7]: 4.70

CC(C)=CCC[C@](C)(O[C@@H]1O[C@H](CO)[C@@H](O)[C@H](O)[C@H]1O)[C@H]1CC[C@]2(C)[C@@H]1[C@H](O)C[C@@H]1[C@@]3(C)CC[C@H](O)C(C)(C)[C@@H]3[C@@H](O[C@@H]3O[C@H](CO)[C@@H](O)[C@H](O)[C@H]3O[C@@H]3OC[C@@H](O)[C@H](O)[C@H]3O)C[C@]12C [Notoginsenoside R1, notoginsenoside R1]
pIC50 [3]: 4.00 | pIC50 [4, 8]: 3.96 | pIC50 [5]: 3.90 | pKd [2, 9]: 3.25 | binding activity to the SelH (in words) [2]: weakest

CC(C)=CCc1c(-c2ccc(O)cc2O)oc2c3c(cc(O)c2c1=O)OC(C)(C)C=C3 [Morusin, morusin]
pIC50 ([4]; Mus musculus, B16-BL6, read-out: IC50 cytotoxic effect on B16-BL6, MTT, 48 hours, Table 2): 4.42 | pKd [2, 10]: 2.39 | binding activity to the SelH (in words) [2]: weakest

CC(C)=CCC[C@]1(C)CC[C@]2(C)[C@H]3CC[C@@]4(C)[C@@H](CCC(=O)[C@@H]4C)[C@]3(C)CC[C@@]2(C)C1 [Shionon, shionon]
pIC50 ([6]; MTT, 48 hours): 4.08 | pIC50 [4, 8]: 4.03 | pIC50 ([1]; MTT, 48 hours, Table 1): 4.03 | pKd [2, 9]: 8.17

CC(C)=CCCC(C)(O)[C@H]1CC[C@]2(C)[C@@H]1[C@H](O)C[C@@H]1[C@@]3(C)CC[C@H](O)C(C)(C)[C@@H]3CC[C@]12C (stereo in doubt) [Protopanaxadiol, protopanoxadiol]
pIC50 ([6]; MTT, 48 hours): 4.51 | pIC50 [4, 8]: 4.24 | pIC50 ([1]; MTT, 48 hours, Table 1): 4.26 | pKd [2, 9]: 10.17 | binding activity to the SelH (in words) [2]: strongest

COc1c(O)cc2oc3cc(O)c(CC=C(C)C)c(O)c3c(=O)c2c1CC=C(C)C [α-mangostin]
pIC50 ([4]; read-out: IC50 cytotoxic effect on B16-BL6, MTT, 48 hours, Table 2): 4.40 | pKd [2, 10]: 3.40

CO[C@@H]1[C@@H](O[C@@H]2O[C@H](C)[C@@H](O[C@H]3C[C@@](C)(O)[C@@H](OC(=O)CC(C)C)[C@H](C)O3)[C@H](N(C)C)[C@H]2O)[C@@H](CC=O)C[C@@H](C)C(=O)/C=C/[C@@H]2O[C@H]2C[C@@H](C)OC(=O)C[C@H]1OC(C)=O [Carbomycin, carbomycin]
A549 IC50 cytotoxicity [5]: 11.79 µg/mL | pKd [2, 7]: 5.36

CC(C)=CCOc1c2ccoc2cc2oc(=O)ccc12 [Iso-imperatorin, iso-imperatorin]
pIC50 ([6]; Mus musculus, 4T1, 48 h): 4.31 | pIC50 [4, 11]: 4.12 | pIC50 ([1]; Homo sapiens, A549, 48 h): 4.14 | pKd [2, 9]: 10.12 | binding activity to the SelH (in words) [2]: strongest

CC(=O)O[C@H](CC=C(C)C)C1=CC(=O)c2c(O)ccc(O)c2C1=O [Acetyl Shikonin, acetyl shikonin]
pIC50 [4, 12]: 5.35 | pKd [2]: 9.33 | binding activity to the SelH (in words) [2]: strongest

CC(C)=CC(=O)O[C@H]1Cc2cc3ccc(=O)oc3cc2OC1(C)C [Decursin, decursin]
pIC50 ([6]; Mus musculus, 4T1, 48 h): 4.42 | pIC50 [4, 11]: 4.17 | pIC50 ([1]; Homo sapiens, A549, 48 h): 4.22 | pKd [2, 9]: 8.69

COc1ccc2ccc(=O)oc2c1CC=C(C)C [Osthol, osthol]
pIC50 ([6]; MTT, 48 hours): 4.17 | pIC50 [4, 8]: 4.00 | pIC50 ([1]; MTT, 48 hours, Table 1): 4.09 | pKd [2, 9]: 7.07

CC(C)=CC[C@@H](O)C1=CC(=O)c2c(O)ccc(O)c2C1=O [Shikonin, shikonin]
pIC50 [4, 12]: 4.89 | pKd [2]: 5.27

CC[C@H]1OC(=O)[C@H](C)[C@@H](O[C@H]2C[C@@](C)(OC)[C@@H](O)[C@H](C)O2)[C@H](C)[C@@H](O[C@@H]2O[C@H](C)C[C@H](N(C)C)[C@H]2O)[C@](C)(O)C[C@@H](C)CN(C)[C@H](C)[C@@H](O)[C@]1(C)O [Azithromycin, azithromycin]
IC50 ([1]; Homo sapiens, A549, 48 h): 72.4 µg/mL | pKd [2, 7]: 3.27 | binding activity to the SelH (in words) [2]: weakest

COc1cc(O)c(CC=C(C)C)c2c1C(=O)CC(c1ccc(O)cc1)O2 (stereo not drawn) [Isoxanthohunol, isoxanthohunol]
pIC50 [4]: 4.54 | pKd [2, 10]: 5.61

CC(C)=CCC/C(C)=C/COc1ccc2ccc(=O)oc2c1 [Aurapten, aurapten]
pIC50 [3]: 4.42 | pIC50 [4]: 4.21 | pIC50 [5]: 4.29 | pKd [2, 9]: 10.82
